Assay results published in publication PMC11489056, “Molecular mechanism of a triazole-containing inhibitor of Mycobacterium tuberculosis DNA gyrase” (iScience, 2024).
≈ marks a conversion by molar mass, not a printed value. Where two headings read alike, the source gives them in different places.

Experiments:
[1] = target: wild-type E. coli DNA gyrase (Escherichia coli, UniProt P0AES4+P0AES6); test: biochemical; details: read-out: IC50 E. coli WT
E. faecium = test: MIC, agar dilution method, ESKAPE strains; format: cell-based; details: Enterococcus faecium; read-out: MIC E. faecium MDR(5)
physchem [2] = format: physicochemical; details: pH 7.4
Experimental: 40 μL of a 10 mM solution in DMSO of the compound were diluted in 1.960 mL of a 1/1 octanol/PBS at pH 7.4 solution. The mixture was gently shaken 2h at room temperature. 20 μL of each solution was diluted in 480 μμL of MeOH and analyzed by LC-MS. Each compound is tested in triplicate. Analysis is performed thanks to a UPLC-MS/MS triple-quadrupole system (Waters) under SIM or MRM detection using the parameters optimized for each compound. HPLC analysis was performed using an Aquity C18 (50x2.1 mm, 1.8 μm); the gradient and the mobile phase (flow rate 600μL/min^-1) used are determined in order to detect the compound of interest with satisfying retention time and peak shape. Acquisition and analysis of data were performed with MS Workstation™ software (version 6.3.0 or higher). LogD was determined as the logarithm of the ratio of concentrations of product in octanol and PBS, determined by mass signals.

E. coli = test: MIC, agar dilution method, ESKAPE strains; format: cell-based, Escherichia coli
physchem [3] = format: physicochemical; details: pH 7.4, aqueous buffer, kinetic from dmso stock
Experimental: 10μL of a 10 mM solution in DMSO of the compound are diluted in 490 μL of PBS pH 7.4 in Matrix tube (in triplicate) or organic solvent (ACN, MeOH) in Matrix tube (in triplicate). The tubes are gently shaken 24h at room temperature. Then the tubes are centrifuged for 5 minutes at 4000 rpm and filtered over 0.45 μm filters (Millex-LH Millipore). 20 μL of each tube are diluted in 180 μL of MeOH. Analysis is performed thanks to a UPLC-MS/MS system (Waters) under SIM detection using the parameters optimized for each compound. HPLC analysis was performed using an Aquity C18 (50x2.1 mm, 1.8 μm); the gradient and the mobile phase (flow rate 600 μL/min^-1) used are determined in order to detect the compound of interest with satisfying retention time and peak shape. Acquisition and analysis of data were performed with Masslynx software. The solubility is determined by the ratio of mass signal area PBS/ organic solvent.

A. baumannii = test: MIC, agar dilution method, ESKAPE strains; format: cell-based; details: Acinetobacter baumannii
S. aureus = test: MIC, agar dilution method, ESKAPE strains; format: cell-based; details: Staphylococcus aureus
Mtb gyrase = details: Figure 1E, GlaxoSmithKline MGIs; cited from earlier work
Mtb GyrBA fusion protein [4] = target: T1, Mtb GyrBA fusion protein (Mycobacterium tuberculosis, UniProt P9WG45+P9WG47); test: DNA cleavage assay on pBR322; format: biochemical; details: pBR322 5 nM, Mtb gyrase 200 nM, 5 μM inhibitor
T1 construct: His6 (TEV-cleavable) (N, cleaved yes); made in house; host or cells: E. coli Bli5 (DE3)

[5] = test system: Mycobacterium tuberculosis H37Rv WT; test: microbe, parasite or virus in culture; format: cell-based
[6] = test system: wild-type C. glutamicum ATCC1332 strain; test: Bacterial cell morphology (cell length) by microscopy; format: cell-based, Corynebacterium glutamicum; details: 10x MIC, 24h, vs DMSO control
[7] = test system: Corynebacterium glutamicum (Cglu) WT; test: MIC on Cglu WT; format: cell-based
Mtb = details: Figure 1F; cited from earlier work
wild-type Mtb gyrase = target: T2, wild-type Mtb gyrase (Mycobacterium tuberculosis, UniProt P9WG45+P9WG47); format: biochemical
T2 construct: His tag (TEV-cleavable) (N, cleaved yes); made in house; host or cells: E. coli Bli5 (DE3)

Mtb GyrBA fusion protein [8] = target: T1, Mtb GyrBA fusion protein; test: Cleavage complex persistence (DNA cleavage-religation assay); format: biochemical
K. pneumoniae = test: MIC, agar dilution method, ESKAPE strains; format: cell-based; details: Klebsiella pneumoniae
Mtb GyrBA fusion protein [9] = target: T1, Mtb GyrBA fusion protein; test: DNA cleavage competition with ciprofloxacin; format: biochemical
[10] = Escherichia coli, E. coli 10385 NDM-1, read-out: MIC E. coli MDR(2)
[11] = Escherichia coli, read-out: MIC E. coli WT(1)
[12] = read-out: MIC A. baumannii MDR(6)
[13] = Escherichia coli, 2 h, read-out: MIC E. coli WT
[14] = Escherichia coli, ATCC25922, read-out: MIC
[15] = Escherichia coli, E. coli 9003, BLSE, read-out: MIC
[16] = A. baumannii 09010, VEB-1, read-out: MIC

Structure (SMILES): COc1ccc2nccc(-n3cc(CCNCc4ccc5c(c4)NC(=O)CO5)nn3)c2c1 [BDM71346 (9c)]
- IC50 [1]: 780 nM
- MIC (E. faecium): 1 µg/mL (≈ 2.32 µM)
- logD (physchem [2]): 1.32
- MIC (E. coli; [10]): 0.5 µg/mL (≈ 1.16 µM)
- MIC (E. coli; [11]): 8 µg/mL (≈ 18.6 µM)
- solubility at 24 h (physchem [3]): 76.9 µg/mL (≈ 179 µM)
- MIC (A. baumannii; [12]): 4 µg/mL (≈ 9.29 µM)
- MIC (S. aureus; read-out: MIC S. aureus MDR(4)): 32 µg/mL (≈ 74.3 µM)
- MIC (S. aureus; read-out: MIC S. aureus WT(3)): 16 µg/mL (≈ 37.2 µM)

Structure (SMILES): COc1ccc2nccc(-n3cc(CCNC(=O)c4ccc5c(c4)OCCO5)nn3)c2c1 [BDM71373 (11b)]
- MIC (E. faecium): ≥ 32 µg/mL
- logD (physchem [2]): 2.35
- MIC (E. coli; [10]): 32 µg/mL (≈ 74.2 µM)
- MIC (E. coli; [11]): ≥ 32 µg/mL
- solubility at 24 h (physchem [3]): 10.2 µg/mL (≈ 23.6 µM)
- MIC (A. baumannii; [12]): 32 µg/mL (≈ 74.2 µM)
- MIC (S. aureus; read-out: MIC S. aureus MDR(4)): ≥ 32 µg/mL
- MIC (S. aureus; read-out: MIC S. aureus WT(3)): ≥ 32 µg/mL

Structure (SMILES): COc1cnc2ccc(=O)n(CCN3CCC(Nc4ccc(Cl)c(Cl)c4)CC3)c2c1 [GSK000]
- IC50 (Mtb gyrase): 5400 nM

Structure (SMILES): O=c1ccc2ncc(=O)n3c2n1C[C@H]3CN1CCC(NCc2cc3c(cn2)OCCC3)CC1 [Gepotidacin, gepotidacin, reference compound]
- minor population of linearized DNA (Mtb GyrBA fusion protein [4]): 10–20%
- MIC [5]: 4 µg/mL (≈ 8.92 µM)
- Cohen's d, cell length compared to control [6]: 2.36
- effect size class, cell length compared to control [6]: ∗∗∗∗ (huge (∗∗∗∗), d > 2.0)
- MIC [7]: 0.2 µg/mL (≈ 0.446 µM)

Structure (SMILES): O=C(O)c1cn(C2CC2)c2cc(N3CCNCC3)c(F)cc2c1=O [Ciprofloxacin, ciprofloxacin, reference compound]
- MIC (E. faecium): ≥ 128 µg/mL
- MIC [5]: 1 µg/mL (≈ 3.02 µM)
- MIC (E. coli; [13]): ≤ 0.06 µg/mL
- MIC (E. coli; [14]): < 0.06 µg/mL
- MIC (E. coli; [15]): 16 µg/mL (≈ 48.3 µM)
- MIC (E. coli; [11]): ≤ 0.06 µg/mL
- Cohen's d, cell length compared to control [6]: 2.08
- MIC [7]: 0.25 µg/mL (≈ 0.754 µM)
- MIC (A. baumannii; [16]): > 32 µg/mL
- MIC (S. aureus; read-out: MIC S. aureus MDR(4)): ≥ 128 µg/mL

Structure (SMILES): COc1cnc2ccc(=O)n(CCN3CCC(Nc4cnc(CO)c(Cl)c4)CC3)c2c1 [EC/11716]
- MIC (Mtb): 0.17 µg/mL (≈ 0.383 µM)

Structure (SMILES): COc1ccc2nccc(-n3cc(CCNCc4ccc5c(c4)NC(=O)CS5)nn3)c2n1 [BDM71403 (10a)]
- IC50 lower than ciprofloxacin (wild-type Mtb gyrase): 12 fold
- IC50 lower than gepotidacin (wild-type Mtb gyrase): 7 fold
- IC50 [1]: 80 nM
- minor population of linearized DNA (Mtb GyrBA fusion protein [4]): 10–20%
- MIC (E. faecium): ≤ 0.06 µg/mL
- difference in complex half-life versus gepotidacin (Mtb GyrBA fusion protein [8]): 10 fold
- MIC (K. pneumoniae; K. pneumoniae 10270, VIM): 4 µg/mL (≈ 8.94 µM)
- MIC (K. pneumoniae; K. pneumoniae 10272, 0XA-48): 2 µg/mL (≈ 4.47 µM)
- MIC (K. pneumoniae; K. pneumoniae 10277, KPC-2): 2 µg/mL (≈ 4.47 µM)
- concentration at which nicked DNA is diminished by 50% (Mtb GyrBA fusion protein [9]): 10 µM
- lower concentration for drop of nicked DNA to 50% in comparison with gepotidacin (Mtb GyrBA fusion protein [9]): 2.5 fold
- logD (physchem [2]): 1.92
- MIC [5]: 0.5 µg/mL (≈ 1.12 µM)
- MIC (E. coli): 0.5 µg/mL (≈ 1.12 µM)
- MIC (E. coli; [13]): 1 µg/mL (≈ 2.23 µM)
- MIC (E. coli; [14]): 1 µg/mL (≈ 2.23 µM)
- MIC (E. coli; [15]): 1 µg/mL (≈ 2.23 µM)
- MIC (E. coli; Escherichia coli, E. coli 10269, NDM-1, read-out: MIC): 1 µg/mL (≈ 2.23 µM)
- MIC (E. coli; Escherichia coli, E. coli 10273, KPC-2, read-out: MIC): 1 µg/mL (≈ 2.23 µM)
- MIC (E. coli; Escherichia coli, E. coli 10385, NDM-1, read-out: MIC): < 0.06 µg/mL
- MIC (E. coli; [10]): ≤ 0.06 µg/mL
- MIC (E. coli; Escherichia coli, E. coli 10386, NDM-1, read-out: MIC): 1 µg/mL (≈ 2.23 µM)
- MIC (E. coli; Escherichia coli, read-out: MIC): 1 µg/mL (≈ 2.23 µM)
- MIC (E. coli; [11]): 1 µg/mL (≈ 2.23 µM)
- solubility at 24 h (physchem [3]): 44 µg/mL (≈ 98.3 µM)
- Cohen's d, cell length compared to control [6]: 1.87
- effect size class, cell length compared to control [6]: ∗∗∗ (very large (∗∗∗), 1.20 < d < 2.0)
- MIC [7]: 0.12 µg/mL (≈ 0.268 µM)
- MIC (A. baumannii; [16]): 1 µg/mL (≈ 2.23 µM)
- MIC (A. baumannii; A. baumannii 10275, VIM-4, read-out: MIC): < 0.06 µg/mL
- MIC (S. aureus; read-out: MIC S. aureus MDR(4)): 0.25 µg/mL (≈ 0.559 µM)
- MIC (S. aureus; read-out: MIC S. aureus WT(3)): 0.25 µg/mL (≈ 0.559 µM)

Structure (SMILES): COc1ccc2nccc(-n3cc(CCNC(=O)c4ccc5c(c4)NC(=O)CS5)nn3)c2c1 [BDM71367 (11a)]
- MIC (E. faecium): 8 µg/mL (≈ 17.4 µM)
- logD (physchem [2]): > 2.65
- MIC (E. coli; [10]): 0.25 µg/mL (≈ 0.543 µM)
- MIC (E. coli; [11]): 8 µg/mL (≈ 17.4 µM)
- solubility at 24 h (physchem [3]): < 0.17 µg/mL
- MIC (A. baumannii; [12]): 4 µg/mL (≈ 8.69 µM)
- MIC (S. aureus; read-out: MIC S. aureus MDR(4)): 4 µg/mL (≈ 8.69 µM)
- MIC (S. aureus; read-out: MIC S. aureus WT(3)): 4 µg/mL (≈ 8.69 µM)

Structure (SMILES): COc1ccc2nccc(-n3cc(CCNCc4ccc5c(c4)OCCO5)nn3)c2n1 [BDM71404 (10b)]
- IC50 [1]: 380 nM
- MIC (E. faecium): ≤ 0.06 µg/mL
- logD (physchem [2]): 1.53
- MIC (E. coli; [10]): 0.25 µg/mL (≈ 0.597 µM)
- MIC (E. coli; [11]): 8 µg/mL (≈ 19.1 µM)
- solubility at 24 h (physchem [3]): 66.9 µg/mL (≈ 160 µM)
- MIC (S. aureus; read-out: MIC S. aureus MDR(4)): 0.25 µg/mL (≈ 0.597 µM)
- MIC (S. aureus; read-out: MIC S. aureus WT(3)): 0.25 µg/mL (≈ 0.597 µM)

Structure (SMILES): COc1ccc2nccc(-n3cc(CCNCc4ccc5c(c4)NC(=O)CS5)nn3)c2c1 [BDM71368 (9a)]
- IC50 lower than ciprofloxacin (wild-type Mtb gyrase): 10 fold
- IC50 lower than gepotidacin (wild-type Mtb gyrase): 6 fold
- IC50 [1]: 1170 nM
- MIC (E. faecium): 0.5 µg/mL (≈ 1.12 µM)
- logD (physchem [2]): 1.81
- MIC [5]: 1 µg/mL (≈ 2.24 µM)
- MIC (E. coli; [13]): 1 µg/mL (≈ 2.24 µM)
- MIC (E. coli; [10]): ≤ 0.06 µg/mL
- MIC (E. coli; [11]): 1 µg/mL (≈ 2.24 µM)
- solubility at 24 h (physchem [3]): 84.7 µg/mL (≈ 190 µM)
- MIC [7]: 0.5 µg/mL (≈ 1.12 µM)
- MIC (A. baumannii; [12]): 1 µg/mL (≈ 2.24 µM)
- MIC (S. aureus; read-out: MIC S. aureus MDR(4)): 1 µg/mL (≈ 2.24 µM)
- MIC (S. aureus; read-out: MIC S. aureus WT(3)): 1 µg/mL (≈ 2.24 µM)

Structure (SMILES): COc1ccc2nccc(-n3cc(CCNCc4ccc5c(c4)OCCO5)nn3)c2c1 [BDM71369 (9b)]
- IC50 [1]: 130 nM
- MIC (E. faecium): 0.25 µg/mL (≈ 0.599 µM)
- logD (physchem [2]): 1.21
- MIC (E. coli; [10]): 1 µg/mL (≈ 2.4 µM)
- MIC (E. coli; [11]): 32 µg/mL (≈ 76.7 µM)
- solubility at 24 h (physchem [3]): > 83.5 µg/mL
- MIC (A. baumannii; [12]): 32 µg/mL (≈ 76.7 µM)
- MIC (S. aureus; read-out: MIC S. aureus MDR(4)): 1 µg/mL (≈ 2.4 µM)
- MIC (S. aureus; read-out: MIC S. aureus WT(3)): 1 µg/mL (≈ 2.4 µM)
